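48-hour exposure; five concentrations; linearly interpolated endpoints. The concentration for 50% growth inhibition is given as GI50. The concentration for full growth arrest is given as TGI.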
Legend:
Assay in all cases: growth of human tumour cells (NCI), 48 h
OVCAR-8 ovarian = tested on: OVCAR-8 ovarian
HS 578T breast = tested on: HS 578T breast
RPMI-8226 leukemia = tested on: RPMI-8226 leukemia
786-0 renal = tested on: 786-0 renal
CAKI-1 renal = tested on: CAKI-1 renal
SF-539 CNS = tested on: SF-539 CNS
UACC-257 melanoma = tested on: UACC-257 melanoma
IGROV1 ovarian = tested on: IGROV1 ovarian
NCI-H23 lung = tested on: NCI-H23 lung
PC-3 prostate = tested on: PC-3 prostate
RXF 393 renal = tested on: RXF 393 renal
SK-OV-3 ovarian = tested on: SK-OV-3 ovarian
SF-268 CNS = tested on: SF-268 CNS
MDA-MB-231 breast = tested on: MDA-MB-231 breast
EKVX NSCLC = tested on: EKVX NSCLC
BT-549 breast = tested on: BT-549 breast
NCI-H460 lung = tested on: NCI-H460 lung
A549 NSCLC = tested on: A549 NSCLC
CCRF-CEM leukemia = tested on: CCRF-CEM leukemia
MALME-3M melanoma = tested on: MALME-3M melanoma
TK-10 renal = tested on: TK-10 renal
SW-620 colon = tested on: SW-620 colon
HOP-92 NSCLC = tested on: HOP-92 NSCLC
M14 melanoma = tested on: M14 melanoma
HCT-15 colon = tested on: HCT-15 colon
ACHN renal = tested on: ACHN renal
SR leukemia = tested on: SR leukemia
OVCAR-3 ovarian = tested on: OVCAR-3 ovarian
MOLT-4 leukemia = tested on: MOLT-4 leukemia

Structure (SMILES): OC(COc1cccc2ccccc12)CN1CCN(c2ccccc2Cl)CC1 (stereo not drawn)
- GI50 (OVCAR-8 ovarian): 16.6 µM
- TGI (OVCAR-8 ovarian): 32.2 µM
- GI50 (HS 578T breast): 15.8 µM
- TGI (HS 578T breast): 58 µM
- GI50 (RPMI-8226 leukemia): 13.2 µM
- TGI (RPMI-8226 leukemia): 38.3 µM
- GI50 (786-0 renal): 15.6 µM
- TGI (786-0 renal): 30.4 µM
- GI50 (CAKI-1 renal): 7.23 µM
- TGI (CAKI-1 renal): 22.7 µM
- GI50 (SF-539 CNS): 16.5 µM
- TGI (SF-539 CNS): 32.8 µM
- GI50 (UACC-257 melanoma): 16.5 µM
- TGI (UACC-257 melanoma): 31 µM
- GI50 (IGROV1 ovarian): 10 µM
- TGI (IGROV1 ovarian): 25.5 µM
- GI50 (NCI-H23 lung): 13.3 µM
- TGI (NCI-H23 lung): 29.8 µM
- GI50 (PC-3 prostate): 7.88 µM
- TGI (PC-3 prostate): 23.2 µM
- GI50 (RXF 393 renal): 16.5 µM
- TGI (RXF 393 renal): 30.8 µM
- GI50 (SK-OV-3 ovarian): 16.8 µM
- TGI (SK-OV-3 ovarian): 37.8 µM
- GI50 (SF-268 CNS): 13.9 µM
- TGI (SF-268 CNS): 29.9 µM
- GI50 (MDA-MB-231 breast): 10.8 µM
- TGI (MDA-MB-231 breast): 25.5 µM
- GI50 (EKVX NSCLC): 12.9 µM
- TGI (EKVX NSCLC): 31.7 µM
- GI50 (BT-549 breast): 12.9 µM
- TGI (BT-549 breast): 26.3 µM
- GI50 (NCI-H460 lung): 12.8 µM
- TGI (NCI-H460 lung): 29 µM
- GI50 (A549 NSCLC): 18.2 µM
- TGI (A549 NSCLC): 35.4 µM
- GI50 (CCRF-CEM leukemia): 11.4 µM
- TGI (CCRF-CEM leukemia): 69.1 µM
- GI50 (MALME-3M melanoma): 10.3 µM
- TGI (MALME-3M melanoma): 25.9 µM
- GI50 (TK-10 renal): 5.58 µM
- TGI (TK-10 renal): 17.1 µM
- GI50 (SW-620 colon): 10.9 µM
- TGI (SW-620 colon): 27.9 µM
- GI50 (HOP-92 NSCLC): 2.47 µM
- TGI (HOP-92 NSCLC): 16.8 µM
- GI50 (M14 melanoma): 14.3 µM
- TGI (M14 melanoma): 29.4 µM
- GI50 (HCT-15 colon): 12.8 µM
- TGI (HCT-15 colon): 28.6 µM
- GI50 (ACHN renal): 13.9 µM
- TGI (ACHN renal): 27.5 µM
- GI50 (SR leukemia): 13.5 µM
- TGI (SR leukemia): 40.4 µM
- GI50 (OVCAR-3 ovarian): 13.9 µM
- TGI (OVCAR-3 ovarian): 27.6 µM
- GI50 (MOLT-4 leukemia): 12.6 µM
- TGI (MOLT-4 leukemia): 59.5 µM
